Laboratory results: patent US4529733A, “Antihypertensive 3-furoyl-1,4-dihydropyridines” (Merrell Dow Pharmaceuticals Inc., priority 1983, dated 1985)
Values belong to the compound of their own block, whether it stands above or below them.

How the values were obtained:
[1] = target: T1, K^+ -depolarized taenia preparations from the guinea pig caecum (Cavia porcellus, UniProt O35505); experiment: Calcium antagonism in K+-depolarized taenia preparations (displacement of Ca++ concentration-response curves); assay type: cell-based; details: for Kb: calculated, against Ca++, read-out: pA2 (converted)
T1 construct: taenia preparations from the guinea pig caecum; from tissue; host or cells: guinea pig caecum, taenia (smooth muscle)
T1 sequence (O35505 whole entry): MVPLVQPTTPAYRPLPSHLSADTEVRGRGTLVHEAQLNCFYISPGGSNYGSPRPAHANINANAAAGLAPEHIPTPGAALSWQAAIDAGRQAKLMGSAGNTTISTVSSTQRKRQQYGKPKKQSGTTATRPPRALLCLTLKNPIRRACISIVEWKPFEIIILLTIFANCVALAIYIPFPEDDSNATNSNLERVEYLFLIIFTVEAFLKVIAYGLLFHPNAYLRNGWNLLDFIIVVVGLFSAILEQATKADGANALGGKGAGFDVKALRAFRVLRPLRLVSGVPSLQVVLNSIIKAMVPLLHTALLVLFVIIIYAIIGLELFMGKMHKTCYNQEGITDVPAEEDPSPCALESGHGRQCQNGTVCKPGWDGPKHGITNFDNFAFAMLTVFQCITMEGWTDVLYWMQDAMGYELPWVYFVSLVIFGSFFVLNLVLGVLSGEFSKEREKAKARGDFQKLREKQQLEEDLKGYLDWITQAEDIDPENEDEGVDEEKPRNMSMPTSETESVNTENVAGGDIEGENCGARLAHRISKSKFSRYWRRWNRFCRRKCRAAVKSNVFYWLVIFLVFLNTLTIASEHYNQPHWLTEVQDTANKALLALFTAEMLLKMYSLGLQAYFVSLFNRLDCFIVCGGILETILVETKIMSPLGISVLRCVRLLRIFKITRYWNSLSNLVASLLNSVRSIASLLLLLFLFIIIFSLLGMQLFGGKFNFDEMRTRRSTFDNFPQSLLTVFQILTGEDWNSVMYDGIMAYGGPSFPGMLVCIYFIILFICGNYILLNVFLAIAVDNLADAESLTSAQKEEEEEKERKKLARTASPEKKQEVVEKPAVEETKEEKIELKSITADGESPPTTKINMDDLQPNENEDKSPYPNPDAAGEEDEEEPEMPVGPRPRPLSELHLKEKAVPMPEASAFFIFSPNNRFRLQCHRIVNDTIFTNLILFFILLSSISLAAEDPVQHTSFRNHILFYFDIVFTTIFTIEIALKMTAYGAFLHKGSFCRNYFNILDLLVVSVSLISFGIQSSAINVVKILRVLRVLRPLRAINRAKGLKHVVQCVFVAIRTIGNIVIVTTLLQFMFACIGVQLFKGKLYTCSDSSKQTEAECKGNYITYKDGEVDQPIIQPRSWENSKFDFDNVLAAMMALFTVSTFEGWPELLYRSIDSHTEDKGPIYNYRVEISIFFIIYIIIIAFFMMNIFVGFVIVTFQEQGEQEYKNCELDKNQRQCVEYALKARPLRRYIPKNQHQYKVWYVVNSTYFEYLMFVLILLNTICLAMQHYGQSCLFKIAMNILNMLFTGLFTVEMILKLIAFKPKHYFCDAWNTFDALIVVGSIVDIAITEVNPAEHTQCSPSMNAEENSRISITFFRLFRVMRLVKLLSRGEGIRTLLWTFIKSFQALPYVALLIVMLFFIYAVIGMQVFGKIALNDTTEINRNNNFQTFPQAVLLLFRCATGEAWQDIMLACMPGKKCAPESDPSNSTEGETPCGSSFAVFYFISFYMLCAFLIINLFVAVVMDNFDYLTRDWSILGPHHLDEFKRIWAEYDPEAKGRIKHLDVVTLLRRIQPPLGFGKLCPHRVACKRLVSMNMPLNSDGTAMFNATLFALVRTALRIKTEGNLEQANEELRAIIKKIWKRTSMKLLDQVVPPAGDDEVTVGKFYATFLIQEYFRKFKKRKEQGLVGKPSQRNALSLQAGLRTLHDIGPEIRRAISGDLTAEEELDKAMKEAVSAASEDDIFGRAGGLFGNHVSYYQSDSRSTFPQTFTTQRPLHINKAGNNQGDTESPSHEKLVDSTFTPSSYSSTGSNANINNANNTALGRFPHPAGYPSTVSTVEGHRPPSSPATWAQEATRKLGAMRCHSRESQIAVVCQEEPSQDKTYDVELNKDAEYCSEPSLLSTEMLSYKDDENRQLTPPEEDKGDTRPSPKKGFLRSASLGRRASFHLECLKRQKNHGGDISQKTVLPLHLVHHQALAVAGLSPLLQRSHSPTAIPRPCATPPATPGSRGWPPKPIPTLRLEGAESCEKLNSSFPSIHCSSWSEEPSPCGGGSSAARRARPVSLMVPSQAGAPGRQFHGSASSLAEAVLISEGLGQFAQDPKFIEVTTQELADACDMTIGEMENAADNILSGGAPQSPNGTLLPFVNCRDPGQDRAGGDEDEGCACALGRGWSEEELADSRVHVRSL
Text: Pharmacol., 38, 234 (1982). […] Pharmacol., 318, 234 (1982)].

[2] = tested on: K^+ -depolarized taenia preparations from guinea pig caecum; experiment: Inhibition of 45Ca++ uptake in K+-depolarized taenia preparations; assay type: cell-based; details: 0.1 and 1 μM; 20 minutes incubation
Experimental: In this procedure, strips of taenia are incubated in Ca^++ -free buffer (composition, mM: NaCl, 97; KCl, 40; glucose, 5.5, HEPES buffer, 10; pH 7.0) at 35° C. and gassed with oxygen. The preparations thus prepared are then incubated with the test compound for 20 minutes after which ^45 Ca^++ /Ca^++ is added (1 mM for 10 minutes). Extracellular Ca^++ is displaced with lanthanum (50 mM) at 0°-4° C.

[3] = tested on: pithed rats; experiment: Anti-hypertensive activity in pithed rats (blood pressure elevated by angiotensin II infusion); assay type: in vivo, rat; details: for bradycardia / diastolic blood pressure, elevated by an infusion of angiotensin II: i.v., result in words
[4] = tested on: pentobarbitone-anesthetized rats; experiment: Anti-hypertensive effect in pentobarbitone-anesthetized rats; assay type: in vivo, rat; details: for Change in diastolic blood pressure / Change in heart rate: pentobarbitone-anesthetized rats
Experimental: In this test, rats, anesthetized with a 45 to 60 mg/kg dose (i.p.) of sodium pentabarbitone, receive the test compound by injection by means of an indwelling cannula in the femoral vein. Diastolic blood pressure is measured by an indwelling catheter in the femoral artery. Heart rate is also measured.

[5] = tested on: conscious spontaneously hypertensive rats (stroke prone strain); experiment: Anti-hypertensive effect in conscious spontaneously hypertensive rats (stroke prone strain); assay type: in vivo, rat
Experimental: In this test, the test compound is injected in an indwelling cannula in the femoral vein and blood pressure is measured by an indwelling catheter in the femoral artery. Heart rate is also measured.

Kb [1]: 1.78 nM
SMILES: COC(=O)C1=C(C)NC(C)=C(C(=O)c2ccco2)C1c1ccccc1[N+](=O)[O-] (stereo not drawn) [Compound A, 3-(2-furoyl)-5-methoxycarbonyl-2,6-dimethyl-4-(2-nitrophenyl)-1,4-dihydropyridine]
displacement of concentration-response curves to Ca++ [1]: caused a concentration-dependent displacement to the right | uptake of 45Ca++ into the tissue [2]: reduced uptake | Change in diastolic blood pressure ([3]; 3 nmol/kg i.v.): 82.2 ± 5.3 % control | Change in heart rate ([3]; 3 nmol/kg i.v.): 98.1 ± 0.9 % control | Change in diastolic blood pressure ([3]; 10 nmol/kg i.v.): 72.3 ± 4.9 % control | Change in heart rate ([3]; 10 nmol/kg i.v.): 93.7 ± 1.7 % control | Change in diastolic blood pressure ([3]; 30 nmol/kg i.v.): 62.4 ± 3.5 % control | Change in heart rate ([3]; 30 nmol/kg i.v.): 90.9 ± 2.5 % control | Change in diastolic blood pressure ([3]; 100 nmol/kg i.v.): 52.0 ± 3.8 % control | Change in heart rate ([3]; 100 nmol/kg i.v.): 81.1 ± 3.3 % control | Change in diastolic blood pressure ([3]; 300 nmol/kg i.v.): 45.0 ± 1.6 % control | Change in heart rate ([3]; 300 nmol/kg i.v.): 74.2 ± 3.4 % control | Change in diastolic blood pressure ([3]; 1000 nmol/kg i.v.): 36.4 ± 1.8 % control | Change in heart rate ([3]; 1000 nmol/kg i.v.): 67.9 ± 3.4 % control | Change in diastolic blood pressure ([3]; 3000 nmol/kg i.v.): 32.9 ± 1.8 % control | Change in heart rate ([3]; 3000 nmol/kg i.v.): 64.3 ± 3.4 % control | bradycardia [3]: dose-dependent bradycardia | diastolic blood pressure, elevated by an infusion of angiotensin II [3]: significantly reduced | blood pressure in anesthetized rats ([4]; anesthetized rats, i.v., result in words): reduced blood pressure in anesthetized rats in a dose-dependent manner | Change in diastolic blood pressure ([4]; 10 nmol/kg i.v.): 86.0 ± 3.3 % control | Change in heart rate ([4]; 10 nmol/kg i.v.): 103.5 ± 0.9 % control | Change in diastolic blood pressure ([4]; 30 nmol/kg i.v.): 80.2 ± 3.2 % control | Change in heart rate ([4]; 30 nmol/kg i.v.): 106.2 ± 2.0 % control | Change in diastolic blood pressure ([4]; 100 nmol/kg i.v.): 55.0 ± 2.8 % control | Change in heart rate ([4]; 100 nmol/kg i.v.): 107.1 ± 3.6 % control | Change in diastolic blood pressure ([4]; 300 nmol/kg i.v.): 54.6 ± 1.9 % control | Change in heart rate ([4]; 300 nmol/kg i.v.): 106.7 ± 3.1 % control | Change in diastolic blood pressure ([4]; 1000 nmol/kg i.v.): 46.7 ± 1.6 % control | Change in heart rate ([4]; 1000 nmol/kg i.v.): 104.0 ± 1.8 % control | Change in diastolic blood pressure ([4]; 3000 nmol/kg i.v.): 46.6 ± 1.6 % control | Change in heart rate ([4]; 3000 nmol/kg i.v.): 102.2 ± 2.2 % control | Change in diastolic blood pressure ([4]; 10000 nmol/kg i.v.): 32.4 ± 2.0 % control | Change in heart rate ([4]; 10000 nmol/kg i.v.): 99.9 ± 3.4 % control | Fall in mean blood pressure ([5]; 100 nmol/kg i.v.): 4.5 ± 1.5 mm Hg | Increase in heart rate ([5]; 100 nmol/kg i.v.): 20.0 ± 3.2 beats/min | Fall in mean blood pressure ([5]; 300 nmol/kg i.v.): 20.5 ± 1.5 mm Hg | Increase in heart rate ([5]; 300 nmol/kg i.v.): 70.0 ± 4.2 beats/min | Fall in mean blood pressure ([5]; 1000 nmol/kg i.v.): 42.5 ± 1.8 mm Hg | Increase in heart rate ([5]; 1000 nmol/kg i.v.): 118.0 ± 16.3 beats/min | Fall in mean blood pressure ([5]; 3000 nmol/kg i.v.): 56.6 ± 1.4 mm Hg | Increase in heart rate ([5]; 3000 nmol/kg i.v.): 136.3 ± 11.1 beats/min | blood pressure ([5]; i.v., result in words): significantly reduced blood pressure in a dose-dependent manner | reflex tachycardia ([5]; i.v., result in words): produced reflex tachycardia

Kb [1]: 4.57 nM
SMILES: CCOC(=O)C1=C(C)NC(C)=C(C(=O)c2ccco2)C1c1ccccc1[N+](=O)[O-] (stereo not drawn) [Compound B, 3-(2-furoyl)-5-ethoxycarbonyl-2,6-dimethyl-4-(2-nitrophenyl)-1,4-dihydropyridine]
displacement of concentration-response curves to Ca++ [1]: caused a concentration-dependent displacement to the right | Change in diastolic blood pressure ([3]; 10 nmol/kg i.v.): 80.6 ± 2.8 % control | Change in heart rate ([3]; 10 nmol/kg i.v.): 94.1 ± 0.5 % control | Change in diastolic blood pressure ([3]; 30 nmol/kg i.v.): 67.9 ± 3.0 % control | Change in heart rate ([3]; 30 nmol/kg i.v.): 90.4 ± 1.3 % control | Change in diastolic blood pressure ([3]; 100 nmol/kg i.v.): 47.7 ± 2.4 % control | Change in heart rate ([3]; 100 nmol/kg i.v.): 85.7 ± 1.5 % control | Change in diastolic blood pressure ([3]; 300 nmol/kg i.v.): 45.6 ± 3.9 % control | Change in heart rate ([3]; 300 nmol/kg i.v.): 84.1 ± 3.4 % control | Change in diastolic blood pressure ([3]; 1000 nmol/kg i.v.): 39.1 ± 2.1 % control | Change in heart rate ([3]; 1000 nmol/kg i.v.): 76.6 ± 3.4 % control | Change in diastolic blood pressure ([3]; 3000 nmol/kg i.v.): 37.1 ± 0.8 % control | Change in heart rate ([3]; 3000 nmol/kg i.v.): 72.2 ± 3.4 % control | bradycardia [3]: dose-dependent bradycardia | diastolic blood pressure, elevated by an infusion of angiotensin II [3]: significantly reduced
